# Results as given in US7326710B2, “Aralkyl formyl-alkyl piperazine derivatives and their uses as a cerebral nerve protective agent” (Shanghai Institute of Pharmaceutical Industry, priority 2002, dated 2008).
# Read-outs that look alike come from different tables or passages of the source. Marks after values point to notes of the source that are not given here.
# Assays:
# [1] = test system: focal cerebral ischemia in rats; assay: Temporary occlusion of the right MCA in rats caused by suture; type: in vivo; details: for Percent of volume (Means ± SEM) / Percent of infarct (%) (Means ± SEM): rats; for Percent of volume (Means ± SEM): length of ischemia 6 hr
# Excerpt: b. Temporary occlusion of the right MCA in rats caused by suture.
# [2] = test system: cerebral anoxia in mice; assay: Anoxic anoxia experiment in mice (closed wide-mouth bottles with soda lime); type: in vivo, Male Kunming mice; details: for ED50: Mus musculus, sc, survival time in anoxic anoxia
# Experimental: Methods: Male Kunming mice were divided into 8 groups, 12 mice for each group. One group is injected subcutaneously with saline ([…], sc), other groups with ACEA1021 (NMDA receptor antagonist under clinical trial) or IV-23. 30 minutes after administration, the animals were put separately into wide-mouth bottles with soda lime, which more quickly closed. The survival time for each mice was recorded, and the group average of survival time was calculated and compared with the saline group.
# [3] = test system: focal cerebral ischemia in rats; assay: Focal brain injury, occlusion of MCA induced by photochemical reaction; type: in vivo
# Experimental: a. Focal brain injury caused by photochemical induction of occlusion of the artery:
# The percentage of infarction was lowered by 52% at 24 hours after operation.
# [4] = test system: anoxia induced by sodium nitrite in mice; assay: Anti-cerebral anoxia in mice, anoxia induced by sodium nitrite; type: in vivo; details: Mus musculus, sc, mice; sodium nitrite 225 mg/kg ip; compound 20 mg/kg sc; read-out: Prolonging the survival duration (%)
# Experimental: The rates of the prolongation of 9 compounds (IV-2, 10, 23, 32, 34, 36, 39, 40, 41) were more than 50%, which indicated the effect of anti-cerebral anoxia. IV-23 and IV-2 prolonged the survival duration by 100% of the animals, showing remarkably protective action for cerebral anoxia. (Table 3)
# One model was established to test the time needed for mice to die because of anoxia caused by sodium nitrite (225 mg/kg, ip). IV-23 (20 mg/kg, sc) can prolong the time for 100%, indicating significant anti-cerebral anoxic anoxia activity.
# [5] = test system: focal cerebral ischemia in rats; assay: Focal cerebral ischemia in rats by occlusion of middle cerebral artery (MCA); type: in vivo; details: 20 mg/kg p.o.
# Experimental: The focal ischemia rat model by occlusion of middle cerebral artery (MCA) was used to determine the protective effects of the compounds on focal cerebral ischemia. The infarct size after focal cerebral ischemia and the weight percentage of cerebral hemisphere were calculated to evaluate the compounds' effects on focal cerebral ischemia.
# [6] = Ames test; type: cell-based
# Excerpt: The Ames test of IV-23 was negative.
# [7] = test system: focal cerebral ischemia in rats; assay: Focal cerebral infarction, electrical coagulation to occlude MCA; type: in vivo; design: The neurological deficit score After the operation / The neurological deficit score 24 h: scale not given here
# [8] = test system: mammalian cultural cell; assay: Chromosome aberration trial in mammalian cultural cell; type: cell-based
# Excerpt: The chromosome aberration trial in mammalian cultural cell was negative.
# [9] = test system: global cerebral ischemia-reperfusion injury in rats; assay: Global cerebral ischemia-reperfusion in rats, four arteries reversible occlusion; type: in vivo
# Excerpt: The effect of IV-23 on cerebral ischemia-reperfusion in rats was studied using four arteries reversible occlusion by measuring the recovering time of the electroencephalogram and the righting reflex (a short time indicates a strong effect).
# [10] = Acute toxicity; details: mouse, in vivo, mice, read-out: LD50 (95% confidence limit)
# [11] = test system: NMDA receptor; assay: Whole-cell patch clamp, current induced by NMDA in isolated rat CA1 pyramidal neuron; type: cell-based; details: NMDA 100 μm, n=4, read-out: IC50, inhibition of the electric current induced by NMDA
# Experimental: Methods: The whole-cell patch-clamp technique. Separate the rat's hippocampi, slash the brain piece into 500 μm thick. Get the CA1 area of hippocampi, put it into artificial cerebral spinal fluid (ACSF) to incubate for more than 1 hour. Then the solution is oxygen saturated. After the incubation of the brain piece, put it into ACSF with protease XIII (1 mg/ml) for 5 minutes. Using trypsin inhibitor type II-S (3 mg/ml) to terminate the protease digestion, and then using test tube to break the brain piece to obtain free cells, let it stand for a while and then start the experiment.
# The electro-physiological experiment used the technique of whole-cell patch-clamp. The amplifier in the experiment is Axon-200A patch-clamp amplifier, with the DigiData-1200A as a sampling port. The software used is AxoScope Version 1.0. The experiment uses as a standard the electric current generated by the whole-cell. The effect of various samples on the electric current was observed. IC50 was determined by proportion of different concentrations to the electric current of NMDA.
# [12] = test system: NMDA receptor; assay: Maximum contraction of isolated guinea pig longitudinal ileum muscle preparations induced by L-Glu; details: compound 10^−5M; contraction induced by L-Glu
# Excerpt: According to the literature (Luzzi, Br J Pharmacol, 95:1271, 1988), maximum contraction of isolated longitudinal ileomuscle preparations of guinea pig induced by L-Glu, were used to examine the activities of the compounds on the NMDA receptor.
# [13] = test system: rats platelet aggregation induced by ADP; assay: Platelet aggregation induced by ADP; type: cell-based; details: concentration 1×10^−4M
# [14] = test system: rodent; assay: Rodent microkernel experiment; details: in vivo
# Excerpt: The rodent microkernel experiment of IV-23 was negative.
# [15] = test system: focal cerebral ischemia in rats; assay: Focal cerebral infarction, electrical coagulation to occlude MCA; type: in vivo; design: The neurological deficit score After the operation / The neurological deficit score 24 h: scale not given here; remark: listed apart in the source
# Experimental: a. The Focal Cerebral-Infarction of Using Electrical Coagulation to Occlude MCA:
# For the 5 mg/kg group, the percentage of the rat's infarct size was decreased, but the difference is not significant (p=0.098). The effect is not significant for the Nimodipine mg/kg.
# [16] = test system: primary culture of rat cerebral cortical neuronal cells; assay: Protective effect on neurons damaged with NMDA, LDH activity; type: cell-based; details: NMDA 1 mmol/L
# Excerpt: Primary culture of rat cerebral cortical neuronal cells were used. […] This is further evidence that IV-23 is a new NMDA receptor antagonist, and has anti-cerebral ischemic injury functions as well.
structure (smiles),measurement,setting,value
"O=c1[nH]c2cc(Cl)c(Cl)c([N+](=O)[O-])c2[nH]c1=O [ACEA-1021, reference compound]",Percent of volume (Means ± SEM),[1]; 10 mg/kg,12.73 ± 1.24%
same,Average survival time (min)(means ± S.E.M.),[2]; 2.5 mg/kg sc,17.33 ± 1.18 min
same,Average survival time (min)(means ± S.E.M.),[2]; 5 mg/kg sc,18.20 ± 0.82 min
same,Average survival time (min)(means ± S.E.M.),[2]; 10 mg/kg sc,19.47 ± 1.17 min
same,Average survival time (min)(means ± S.E.M.),[2]; 20 mg/kg sc,20.04 ± 1.38 min
same,ED50,[2],29.2 mg/kg
same,Necrotic percent (%),"[3]; rats, 2 mg/kg",17 ± 2 %
same,Score of praxiology After operation,"[3]; rats, 2 mg/kg",9.5 ± 0.5
same,Weight of necrotic area,"[3]; rats, 2 mg/kg",0.12 ± 0.02 g
same,Score of praxiology 24 h,"[3]; rats, 2 mg/kg",7.1 ± 1.9
"O=C(CN1CCN(S(=O)(=O)Cc2ccc(F)cc2F)CC1)c1ccccc1 [IV-22, N^1-phenacyl-N^4-(2,4-difluorobenzylsulfonyl) piperazine]",ILS at 20 mg/kg,[4],26%
same,Infarct volume,[5],0.10 ± 0.02 g
same,Neurological deficit After operation,[5],9.6 ± 0.9
same,Neurological deficit 24 h,[5]; 24 h after operation,7.4 ± 2.4
"O=C(CN1CCN(CC(=O)c2ccccc2)CC1)NCc1ccccc1 [IV-23, N^1-phenacyl-N^4-[2-(benzylamino)-2-oxo-ethyl] piperazine]",Ames test,[6],negative
same,The neurological deficit score 24 h,[7]; High-dose (20 mg/kg),6.7 ± 2.6
same,The neurological deficit score After the operation,[7]; High-dose (20 mg/kg),9.7 ± 0.5
same,The percentage of infarction (%),[7]; High-dose (20 mg/kg),14.2 ± 6.8 %
same,The weight of infarct area,[7]; High-dose (20 mg/kg),0.11 ± 0.05 g
same,The percentage of infarction (%),[7]; middle-dose (10 mg/kg),13.4 ± 8.4 %
same,The weight of infarct area,[7]; middle-dose (10 mg/kg),0.10 ± 0.06 g
same,chromosome aberration trial,[8],negative
same,Time for electroencephalogram to disappear(S),[9]; High-dose (20 mg/kg ip),566.3 ± 430.3^*Δ S
same,Time for electroencephalogram to recover (S),[9]; High-dose (20 mg/kg ip),70.3 ± 20.1^***ΔΔΔ S
same,Time for righting reflex to recover (S),[9]; High-dose (20 mg/kg ip),147.0 ± 123.1^*ΔΔΔ S
same,Time for electroencephalogram to disappear(S),[9]; Low-dose (5 mg/kg ip),275.5 ± 338.1^*Δ S
same,Time for electroencephalogram to recover (S),[9]; Low-dose (5 mg/kg ip),184.6 ± 214.1^***ΔΔΔ S
same,Time for righting reflex to recover (S),[9]; Low-dose (5 mg/kg ip),550.0 ± 282.5^*ΔΔΔ S
same,Time for electroencephalogram to disappear(S),[9]; Middle-dose (10 mg/kg ip),557.1 ± 639.4^*Δ S
same,Time for electroencephalogram to recover (S),[9]; Middle-dose (10 mg/kg ip),334.3 ± 674.3^***ΔΔΔ S
same,Time for righting reflex to recover (S),[9]; Middle-dose (10 mg/kg ip),822.8 ± 741.9^*ΔΔ S
same,LD50,"[10]; iv, i.v.",133 mg/kg
same,LD50,"[10]; po, p.o.",856 mg/kg
same,IC50,[11],562.7 ± 1.1 µM
same,antagonism % (restrain rate of contraction of preparations),[12],40%
same,reduce the volume (of cerebral infarction) by,"[1]; 5 mg/kg, after 3 hours of ischemia",46.3%
same,Percent of volume (Means ± SEM),[1]; 2.5 mg/kg,15.42 ± 1.71%
same,Percent of volume (Means ± SEM),[1]; 5 mg/kg,12.90 ± 1.11%
same,Percent of infarct (%) (Means ± SEM),"[1]; 5 mg/kg, time of occlusion 1 hr",1.31 ± 0.50%
same,Percent of infarct (%) (Means ± SEM),"[1]; 5 mg/kg, time of occlusion 3 hr",8.57 ± 1.42%
same,Percent of infarct (%) (Means ± SEM),"[1]; 5 mg/kg, time of occlusion 6 hr",12.90 ± 1.11%
same,Percent of volume (Means ± SEM),[1]; 10 mg/kg,14.92 ± 1.40%
same,Average survival time (min)(means ± S.E.M.),[2]; 10 mg/kg sc,16.46 ± 0.89 min
same,Average survival time (min)(means ± S.E.M.),[2]; 20 mg/kg sc,17.11 ± 0.53 min
same,Average survival time (min)(means ± S.E.M.),[2]; 40 mg/kg sc,19.26 ± 0.91 min
same,Average survival time (min)(means ± S.E.M.),[2]; 80 mg/kg sc,20.04 ± 1.56 min
same,ED50,[2],6.2 mg/kg
same,inhibition of platelet aggregation induced by ADP,[13],did inhibit
same,percentage of infarction lowered by,"[3]; compared with vehicle (saline), 24 hours after operation",52%
same,Necrotic percent (%),"[3]; rats, 2 mg/kg",11 ± 3***^ΔΔΔ %
same,Score of praxiology After operation,"[3]; rats, 2 mg/kg",9.6 ± 0.5
same,Weight of necrotic area (g),"[3]; rats, 2 mg/kg",0.08 ± 0.02***^ΔΔΔ g
same,Score of praxiology 24 h,"[3]; rats, 2 mg/kg",5.4 ± 1.9***^Δ
same,rodent microkernel experiment,[14],negative
same,The neurological deficit score 24 h,[15]; Low-dose (5 mg/kg),8.1 ± 2.0
same,The neurological deficit score After the operation,[15]; Low-dose (5 mg/kg),9.7 ± 0.5
same,The percentage of infarction (%),[15]; Low-dose (5 mg/kg),20.8 ± 8.8 %
same,The weight of infarct area,[15]; Low-dose (5 mg/kg),0.15 ± 0.06 g
same,The neurological deficit score 24 h,[15]; middle-dose (10 mg/kg),5.6 ± 2.7
same,The neurological deficit score After the operation,[15]; middle-dose (10 mg/kg),9.6 ± 0.5
same,LDH activities (U/g protein) (mean ± SEM),[16]; Concentration 10,1.86 ± 0.20 U/g protein
same,Protective rate (%),[16]; Concentration 10,0%
same,LDH activities (U/g protein) (mean ± SEM),[16]; Concentration 50,1.23 ± 0.14 U/g protein
same,Protective rate (%),[16]; Concentration 50,48.1%
same,LDH activities (U/g protein) (mean ± SEM),[16]; Concentration 100,1.05 ± 0.16 U/g protein
same,Protective rate (%),[16]; Concentration 100,65.1%
same,LDH activities (U/g protein) (mean ± SEM),[16]; Concentration 200,0.79 ± 0.19 U/g protein
same,Protective rate (%),[16]; Concentration 200,89.6%
same,Infarct volume,[5],0.057 ± 0.012 g
same,Neurological deficit After operation,[5],9.4 ± 1.5
